Results on two molecules are retold here after paper PMC4853472, “Trapping mammalian protein complexes in viral particles” (Nature Communications, 2016).

Experiment [1] has as its target T1, HMG-CoA reductase enzyme (HMGCR) (Homo sapiens, UniProt P04035).
T1 construct: endogenous protein of HEK293T cells, trapped in GAG-eDHFR virus-like particles, identified by LC-MS/MS
T1 sequence (P04035 1-888): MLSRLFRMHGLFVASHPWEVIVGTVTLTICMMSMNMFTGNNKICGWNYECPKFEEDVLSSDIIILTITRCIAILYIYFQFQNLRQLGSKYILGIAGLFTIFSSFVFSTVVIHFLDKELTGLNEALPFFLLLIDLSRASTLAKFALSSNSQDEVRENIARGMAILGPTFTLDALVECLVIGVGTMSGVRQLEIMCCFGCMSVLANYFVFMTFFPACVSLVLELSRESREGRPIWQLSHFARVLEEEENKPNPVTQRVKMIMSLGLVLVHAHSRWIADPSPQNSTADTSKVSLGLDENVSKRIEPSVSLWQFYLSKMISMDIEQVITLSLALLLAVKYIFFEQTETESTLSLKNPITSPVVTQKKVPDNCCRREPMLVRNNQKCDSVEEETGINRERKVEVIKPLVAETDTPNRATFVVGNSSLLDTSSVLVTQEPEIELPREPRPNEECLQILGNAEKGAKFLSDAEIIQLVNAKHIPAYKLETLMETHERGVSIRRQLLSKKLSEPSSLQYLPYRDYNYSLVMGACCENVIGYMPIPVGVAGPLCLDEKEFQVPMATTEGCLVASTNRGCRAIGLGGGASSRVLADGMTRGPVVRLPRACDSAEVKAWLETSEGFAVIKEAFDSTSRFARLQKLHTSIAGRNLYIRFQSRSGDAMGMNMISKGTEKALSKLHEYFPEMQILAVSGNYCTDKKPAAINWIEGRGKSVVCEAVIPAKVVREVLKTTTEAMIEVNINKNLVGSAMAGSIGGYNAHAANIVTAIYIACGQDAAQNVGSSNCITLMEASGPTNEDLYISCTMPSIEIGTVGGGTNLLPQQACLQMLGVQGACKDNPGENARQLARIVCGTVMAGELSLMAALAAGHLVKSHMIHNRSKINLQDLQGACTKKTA
The experiment in a line: Virotrap: trapping in GAG-eDHFR virus-like particles, LC-MS/MS. To be noted: MTX-PEG-simvastatin conjugate, not free simvastatin; 1 uM on HEK293T producer cells; DMSO and unrelated-bait controls. In kind it is cell-based.

Another experiment concerns the target MAL TIR (Homo sapiens) (UniProt P58753). To be noted: cited from earlier work.

Chain of MAL TIR (Homo sapiens) (P58753 81-216): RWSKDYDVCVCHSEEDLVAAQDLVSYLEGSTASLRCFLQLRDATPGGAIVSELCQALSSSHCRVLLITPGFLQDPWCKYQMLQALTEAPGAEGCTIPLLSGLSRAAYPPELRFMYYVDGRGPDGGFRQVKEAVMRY

`C[C@H]1C=C2C=C[C@H](C)[C@H](CC[C@@H]3C[C@@H](O)CC(=O)O3)[C@H]2[C@@H](OC(=O)C(C)(C)Cc2cn(CCOCCOCCOCCOCCOCCNC(=O)CC[C@H](NC(=O)c3ccc(N(C)Cc4cnc5nc(N)nc(N)c5n4)cc3)C(=O)O)nn2)C1` [MTX-linked simvastatin]: the “Protein trapped in virus-like particles (LC-MS/MS)” value in experiment [1] is reported as “consistent enrichment of the known targets for simvastatin (HMG-CoA reductase enzyme (HMGCR))”. Consider MYD88 TIR (from UniProt Q99836), for which the Kd with MAL TIR (Homo sapiens) is 8 µM.
